Reference: patent US6916802B2, “Amino ceramide-like compounds and therapeutic methods of use” (Genzyme Corporation, priority 2002, dated 2005)
pIC50: −log10 of the molar value. Values joined by “and” are separate entries in the source; they are usually repeats but may differ in a detail not shown here. Equal entries are not always repeated. Marks after values point to notes of the source that are not given here.

Legend:
[1] = test system: GlcCer synthase of MDCK cell homogenates; experiment: Inhibition of ceramide glucosyltransferase (GlcCer synthase) of MDCK cell homogenates; format: biochemical, canine; conditions: triplicate ± SD, samples partly isomer mixtures
Procedure: Assay of sphingolipid enzymes. The inhibitors were evaluated for their effectiveness against the GlcCer synthase of MDCK cell homogenates by incubation in a thermostatted ultrasonic bath (Radin N. S. et al., “Ultrasonic Baths as Substitutes for Shaking Incubator Baths,” Enzyme, 45:67-70 (1991)) with octanoyl sphingosine and uridinediphospho[^3H]glucose (Shukla, G. S. et al., “Glucosylceramide Synthase of Mouse Kidney: Further Characterization and Improved Assay Method,” Arch. Biochem. Biophys., 283:372-378 (1990)). The lipoidal substrate (85 μg) was added in liposomes made from 0.57 mg dioleoylphosphatidylcholine and 0.1 mg of Na sulfatide. Confluent cells were washed, then homogenized with a micro-tip sonicator at 0° C. for 3×30 sec; ˜0.2 mg of protein was used in each assay tube. In the case of the aromatic inhibitors, the test compound was simply evaporated to dryness from solution in the incubation tube. […] The aliphatic inhibitors, which appeared to be less soluble in water, were added as part of the substrate liposomes.

[2] = test system: MCF-7 breast carcinoma cells; experiment: Tumor cell growth in vitro (sulforhodamine B), MCF-7; format: cell-based, human; conditions: Homo sapiens, MCF7, rounded off to one digit, read-out: Inhibition of tumor cell growth in vitro, IC50
Procedure: (§1) Growth of cell lines. Comparisons of different inhibitors with regard to suppression of human cancer cell growth were made by the University of Michigan Cancer Center in vitro Drug Evaluation Core Laboratory. MCF-7 breast carcinoma cells, HT-29 colon adenocarcinoma cells, H-460 lung large cell carcinoma cells, and 9L brain gliosarcoma cells were grown in RPMI 1640 medium with 5% fetal bovine serum, 2 mM glutamine, 50 units/ml of penicillin, […] of streptomycin, and 0.1 mg/ml of neomycin. UMSCC-10A head and neck squamous carcinoma cells were grown in minimal essential medium with Earle salts and the same supplements. Medium components were from Sigma Chemical Co. Cells were plated in 96-well microtiter plates (1000 cells/well for H-460 and 9L cells, and 2000 cells/well for the other lines), and the test compounds were added 1 day later. The stock inhibitor solutions, 2 mM in 2 mM BSA, were diluted with different amounts of additional 2 mM BSA, then each solution was diluted 500-fold with growth medium to obtain the final concentrations indicated in the Figures and Tables.
(§2) Five days after plating the H-460 and 9L cells, or 6 days for the other lines, cell growth was evaluated by staining the adhering cells with sulforhodamine B and measuring the absorbance at 520 nm (Skehan, P. et al., “New Colorimetric Cytotoxicity Assay for Anticancer-Drug Screening,” J. Natl. Cancer Inst., 82:1107-1112 (1990)). The absorbance of the treated cultures is reported as percent of that of control cultures, to provide an estimate of the fraction of the cells that survived, or of inhibition of growth rate.

[3] = test system: H-460 lung large cell carcinoma cells; experiment: Tumor cell growth in vitro (sulforhodamine B), H-460; format: cell-based, human; conditions: Homo sapiens, NCI-H460, rounded off to one digit, read-out: Inhibition of tumor cell growth in vitro, IC50
Procedure: as §1, §2

[4] = test system: HT-29 colon adenocarcinoma cells; experiment: Tumor cell growth in vitro (sulforhodamine B), HT-29; format: cell-based, human; conditions: Homo sapiens, rounded off to one digit, read-out: Inhibition of tumor cell growth in vitro, IC50
Procedure: as §1, §2

[5] = test system: 9L brain gliosarcoma cells; experiment: Tumor cell growth in vitro (sulforhodamine B), 9L; format: cell-based
Procedure: as §1, §2

[6] = test system: UMSCC-10A head and neck squamous carcinoma cells; experiment: Tumor cell growth in vitro (sulforhodamine B), UMSCC-10A; format: cell-based, human; conditions: Homo sapiens, rounded off to one digit, read-out: Inhibition of tumor cell growth in vitro, IC50
Procedure: as §1, §2

[7] = target: T1, 1-O-acylceramide synthase (Canis lupus familiaris, UniProt Q6XPZ3); experiment: 1-O-acylceramide synthase (transacylase) assay; format: biochemical; conditions: D-threo enantiomers, FIG. 12
T1 construct: the 1-O-acylceramide synthase assayed in the cellular homogenates; endogenous in cells; host or cells: cellular homogenates (MDCK, from context)
T1 sequence (Q6XPZ3 32-408): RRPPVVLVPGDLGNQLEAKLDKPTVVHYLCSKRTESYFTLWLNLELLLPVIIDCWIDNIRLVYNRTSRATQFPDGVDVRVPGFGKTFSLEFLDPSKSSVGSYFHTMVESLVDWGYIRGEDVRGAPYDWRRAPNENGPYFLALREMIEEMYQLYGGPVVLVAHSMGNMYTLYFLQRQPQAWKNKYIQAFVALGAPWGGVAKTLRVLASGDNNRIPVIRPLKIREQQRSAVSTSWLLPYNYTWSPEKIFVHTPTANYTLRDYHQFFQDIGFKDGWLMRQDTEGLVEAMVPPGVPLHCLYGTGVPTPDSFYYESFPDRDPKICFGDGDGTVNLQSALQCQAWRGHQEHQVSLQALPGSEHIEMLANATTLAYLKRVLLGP
Description: Distinguishing Between Inhibition of GlcCer Synthase and 1-O-acylceramide Synthase Inhibition. […] An alternative pathway for ceramide metabolism was subsequently identified, the acylation of ceramide at the 1-hydroxyl position, which was blocked by both threo and erythro diastereomers of PDMP. The specificities of D-threo-P4, D-threo-3′,4′-ethylenedioxy-P4, and D-threo-(4′-hydroxy)-P4 for GlcCer synthase were studied by assaying the transacylase.

[8] = test system: MDCK cells; experiment: GlcCer, ceramide and diradylglycerol content of treated MDCK cells (Specific Example 2); format: cell-based, canine; conditions: for GlcCer lost from the cells (depletion): 11.3 nM inhibitor
Procedure: Cell culture and lipid extraction. One half million of MDCK cells were seeded into 10 cm style dish containing 8 ml serum free DMEM supplemented medium. Shayman, J. A. et al., J. Biol. Chem., 265:12135-12138 (1990). […] The GlcCer synthase inhibitors were added into the medium as a one to one complex with delipidated BSA. Abe, A. et al., J. Lipid. Res., 36:611-621 (1995); Abe, A. et al., Biochim. Biophys. Acta, 1299:331-341 (1996). The cells were incubated for 24 h or 48 h with the inhibitors. After the incubation, the cells were washed twice with 8 ml of cold PBS and fixed with 2 ml of cold methanol. The fixed cells were scraped and transferred to a glass tube. Another one ml of methanol was used to recover the remaining cells in the dish.
Three ml of chloroform was added to the tube and briefly sonicated using a water bath type sonicator. After centrifugation at 800 g for 5 min, the supernatant was transferred into another glass tube. The residues were reextracted with chloroform/methanol (1/1). After the centrifugation, the resultant supernatant was combined with the first one. The residues were air-dried and kept for protein analysis. Adding 0.9% NaCl to the supematant combined, the ratio of chloroform/methanol/aqueous was adjusted to 1/1/1. After centrifugation 800 g for 5 min, the upper layer was discarded. Methanol/water (1/1) with the same amount of volume of the lower layer was used to wash. The resultant lower layer was transferred into a small glass tube and dried down under a stream of nitrogen gas. A part of the lipid was used for lipid phosphate determination. Ames, B. N., Methods Enzymol., 8:115-118 (1966). The remainder was analyzed using HPTLC (Merck).
In order to determine whether inhibition of 1-O-acylceramide synthase was the basis for inhibitor mediated ceramide accumulation, the ceramide and diradylglycerol levels of MDCK cells treated D-threo-P4, D-threo-3′,4′-ethylenedioxy-P4, and D-threo-(4′-hydroxy)-P4 were measured (Table 9). MDCK cells (5×10^5) were seeded into a 10 cm dish and incubated for 24 h. Following the incubation, the cells were treated for 24 or 48 h with or without P4 or the phenyl substitute homologues. Both ceramide and diradylglycerol contents were determined by the method of Preis, J. et al., J. Biol. Chem., 261:8597-8600 (1986). GlcCer content was measured densitometrically by a video camera and use of NIH image 1.49. Significant increases in both ceramide and diradylglycerol occurred only in cells treated with inhibitor concentrations in excess of 1 mM. This was approximately 30-fold lower than the concentration required for inhibition of the 1-O-acylceramide synthase assayed in the cellular homogenates. […] Abe, A. et al., Biochim. Biophys. Acta, 1299:331-341 (1996).
(§3) Effects of D-threo-P4, D-threo4′-hydroxy-P4 and D-threo-3,4′-ethylenedioxy-P4 on GlcCer Synthesis and Cell Growth. To confirm the cellular specificity of D-threo-3′,4′-ethylenedioxy-P4 and D-threo-(4′-hydroxy)-P4 as compared to D-threo-P4, MDCK cells were treated with different concentrations of the inhibitors. The total protein amount in each sample was determined by the BCA method. In GlcCer analysis, lipid samples and standard lipids were applied to the same HPTLC plate pre-treated with borate and developed in a solvent consisting of C/M/W (63/24/4). The level of GlcCer was estimated from a standard curve obtained using a computerized image scanner. The values were normalized on the basis of the phospholipid content. The results are shown in FIG. 7, wherein each bar is the average values from three dishes, with error bars corresponding to one standard deviation. In the control, the total protein and GlcCer were 414±47.4 μg/dish and 24.3±1.97 ng/nmol phosphate, respectively.

[9] = substituent of phenyl group; estimated from the Table in Hogberg et al.; cited from earlier work
[10] = test system: MDCK cells; experiment: Cell growth of treated MDCK cells, total protein (Specific Example 2); format: cell-based, canine
Procedure: Cell culture and lipid extraction. One half million of MDCK cells were seeded into 10 cm style dish containing 8 ml serum free DMEM supplemented medium. Shayman, J. A. et al., J. Biol. Chem., 265:12135-12138 (1990). After 24 h the medium was replaced with 8 ml of the medium containing 0, 11.8, 118 or 1180 nM D-t-P4, D-t-3′,4′-ethylenedioxy-P4 or D-4′-hydroxy)-P4. The GlcCer synthase inhibitors were added into the medium as a one to one complex with delipidated BSA. Abe, A. et al., J. Lipid. Res., 36:611-621 (1995); Abe, A. et al., Biochim. Biophys. Acta, 1299:331-341 (1996). The cells were incubated for 24 h or 48 h with the inhibitors. After the incubation, the cells were washed twice with 8 ml of cold PBS and fixed with 2 ml of cold methanol. The fixed cells were scraped and transferred to a glass tube. Another one ml of methanol was used to recover the remaining cells in the dish.
as §3

CCCCCCCCCCCCCCCC(=O)NC(CN1CCCC1)C(O)c1ccccc1 (racemic) [BML-119, 1-phenyl-2-palmitoylamino-3-pyrrolidino-1-propanol]
Inhibition at 5 μM ([1]; 5 μM inhibitor, 5 µM): 50% and 51 ± 2.3^e % and 49 ± 0.8^f % | % Inhibition at 80 μM ([1]; 80 μM inhibitor, 80 µM): 94 ± 1.4^b % and 97 ± 0.1^c % and 96 ± 0.1^d % | pIC50 [2]: 5.70 | pIC50 [3]: 6.00 | pIC50 [4]: 6.00 | activity at 1 µM ([5]; 9L cells, 1 μM inhibitor, read-out: growth, % of control growth): 71% | activity at 3 µM ([5]; 9L cells, 3 μM inhibitor, read-out: growth, % of control growth): 3% | pIC50 ([5]; 9L, rounded off to one digit, read-out: Inhibition of tumor cell growth in vitro, IC50): 6.00 | pIC50 [6]: 6.00

CCCCCCCCCCCCCCCC(=O)N[C@H](CN1CCCC1)[C@H](O)c1ccccc1 [D-threo-P4]
activity in blocking 1-O-acylceramide synthase [7]: comparable activity | GlcCer lost from the cells (depletion) [8]: 27% | Ceramide (pmol/nmol phospholipids) ([8]; 11.3 nM, 24 h): 5.33 ± 0.41 pmol/nmol phospholipids | Diradylglycerol (pmol/nmol phospholipids) ([8]; 11.3 nM, 24 h): 24.1 ± 1.66 pmol/nmol phospholipids | Ceramide (pmol/nmol phospholipids) ([8]; 11.3 nM, 48 h): 5.68 ± 0.27 pmol/nmol phospholipids | Diradylglycerol (pmol/nmol phospholipids) ([8]; 11.3 nM, 48 h): 29.6 ± 0.73 pmol/nmol phospholipids | Ceramide (pmol/nmol phospholipids) ([8]; 113 nM, 24 h): 4.64 ± 0.38 pmol/nmol phospholipids | Diradylglycerol (pmol/nmol phospholipids) ([8]; 113 nM, 24 h): 26.6 ± 1.56 pmol/nmol phospholipids | Ceramide (pmol/nmol phospholipids) ([8]; 113 nM, 48 h): 7.08 ± 0.29 pmol/nmol phospholipids | Diradylglycerol (pmol/nmol phospholipids) ([8]; 113 nM, 48 h): 33.0 ± 2.63 pmol/nmol phospholipids | Ceramide (pmol/nmol phospholipids) ([8]; 1130 nM, 24 h): 5.10 ± 0.35 pmol/nmol phospholipids | Diradylglycerol (pmol/nmol phospholipids) ([8]; 1130 nM, 24 h): 27.1 ± 0.67 pmol/nmol phospholipids | Ceramide (pmol/nmol phospholipids) ([8]; 1130 nM, 48 h): 9.74 ± 0.53 pmol/nmol phospholipids | Diradylglycerol (pmol/nmol phospholipids) ([8]; 1130 nM, 48 h): 38.8 ± 1.11 pmol/nmol phospholipids | σ + π [9]: 0.00

CCCCCCCCCCCCCCCC(=O)N[C@H](CN1CCCC1)[C@H](O)c1ccc2c(c1)OCCO2 [D-threo-3′,4′-ethylenedioxy-P4, D-t-3′,4′-ethylenedioxy-1-phenyl-2-palmitoylamino-3-pyrrolidino-1-propanol]
activity in blocking 1-O-acylceramide synthase [7]: comparable activity | GlcCer lost from the cells (depletion) [8]: ~78% | GlcCer lost from the cells (depletion) ([8]; listed as D-t-3′,4′-ethylenedioxy-P4): 80% | Ceramide (pmol/nmol phospholipids) ([8]; 113 nM, 24 h): 5.21 pmol/nmol phospholipids | level of ceramide versus untreated cells ([8]; 1130 nM): two times higher | total protein versus untreated cells ([10]; 1130 nM): significant decrease | total protein content versus untreated cells ([10]; 11.3 or 113 nM): little difference
